{"source": "patent US12285407B2", "about": "“Bis-indolylmethane derivatives and uses thereof” (The University of The West Indies, priority 2018, dated 2025)", "type_in_all_cases": "cell-based", "key": {"[1]": {"test_system": "Salmonella typhimurium ATCC 14028", "assay": "Broth microdilution MIC of SP-BIMs", "conditions": "Salmonella enterica, read-out: MIC Salmonella tvpkimurium ATCC 14028", "text": "Reference microorganisms used in this study included: Bacillus cereus (American Type Culture Collection (ATCC) No. 14579), Streptococcus pyogenes (ATCC No. 19615), Staphylococcus aureus (ATCC No. 12600), Enterococcus faecium (ATCC No. 19434), Corynebacterium diphtheriae (ATCC No. 27010), Escherichia coli (ATCC No. 35218), Salmonella typhimurium (ATCC No. 14028), Pseudomonas aeruginosa (ATCC No. 27853), Klebsiella pneumoniae (ATCC No. 49472), and Candida albicans (ATCC No. 22972).\nPrior to each experiment, cultures were streaked onto clean BHI agar plates and incubated at 35° C. for 24 hours. Colonies of the respective cultures were selected and inoculated in phosphate buffer saline (pH 7.5) to a 0.5 McFarland turbidity standard (equivalent to 10^8 CFU mL^−1). The bacterial suspension was then diluted 1:100 in cation adjusted Mueller Hinton Broth (ca-MHB) (Oxoid Ltd, Basingstoke, Hampshire, England).\nStock solutions (50 mg mL^−1) of the SP-BIM test compounds were prepared in DMSO and stored at 4° C. Working preparations of each compound was made up to 1 mg/mL in sterile deionized water with a final DMSO concentration of 10%.\nTo assess the antibiotic properties of the library of SP-BIMs, the broth microdilution assay was performed in 96-well microplates according to the Clinical and Laboratory Standards Institute 2014 Guidelines (CLSI 2014). The broth microdilution assay was used to determine the minimum inhibitory concentration (MIC). […] Bacterial cells (˜10^6 CFU mL^−1) were inoculated into cation adjusted-Mueller Hinton broth containing the test compound in a twofold serial dilution ranging between 250 μg mL^−1 and 0.02 μg mL^−1. Plates were incubated at 35° C. for 18 hours after which 50 μL of 5% resazurin solution was added to each well. Resazurin is a blue dye which, upon reduction by living cells, turns to a pink resorufin product. Plates were shaken for 1 hour after the addition of the dye. The MIC was recorded as the well with the lowest concentration of test compound where no color change was observed."}, "[2]": {"test_system": "Enterococcus faecium ATCC 19434", "assay": "Broth microdilution MIC of SP-BIMs", "conditions": "ATCC19434, SP-BIM alone, read-out: MIC Enterococcus faecium ATCC 19434"}, "[3]": {"test_system": "Candida albicans ATCC 22972", "assay": "Broth microdilution MIC of SP-BIMs", "conditions": "ATCC22972, SP-BIM alone, read-out: MIC Candida albicans ATCC 22972"}, "[4]": {"test_system": "Corynebacterium diphtheriae ATCC 27010", "assay": "Broth microdilution MIC of SP-BIMs", "conditions": "ATCC27010, SP-BIM alone, read-out: MIC Corynebacterium diphtheriae ATCC 27010"}, "[5]": {"test_system": "Staphylococcus aureus ATCC 12600", "assay": "Broth microdilution MIC of SP-BIMs", "conditions": "ATCC12600, SP-BIM alone, read-out: MIC Staphylococcus aureus ATCC 12600"}, "[6]": {"test_system": "Streptococcus pyogenes ATCC 19615", "assay": "Broth microdilution MIC of SP-BIMs", "conditions": "ATCC19615, SP-BIM alone, read-out: MIC Streptococcus pyogenes ATCC 19615"}, "[7]": {"test_system": "Klebsiella pneumoniae ATCC 49472", "assay": "Broth microdilution MIC of SP-BIMs", "conditions": "ATCC49472, SP-BIM alone, read-out: MIC Klebisella pneumoniae ATCC 49472"}, "[8]": {"test_system": "Bacillus cereus ATCC 14579", "assay": "Broth microdilution MIC of SP-BIMs", "conditions": "ATCC14579, SP-BIM alone, read-out: MIC Bacillus cereus ATCC 14579"}, "[9]": {"test_system": "Escherichia coli ATCC 35218", "assay": "Broth microdilution MIC of SP-BIMs", "conditions": "ATCC35218, SP-BIM alone, read-out: MIC Escherichia coli ATCC 35218"}, "[10]": {"test_system": "Pseudomonas aeruginosa ATCC 27853", "assay": "Broth microdilution MIC of SP-BIMs", "conditions": "ATCC27853, SP-BIM alone, read-out: MIC Pseudomonas aeruginosa ATCC 27853"}, "Streptococcus pneumoniae": {"test_system": "Streptococcus pneumoniae", "assay": "Adjuvant broth microdilution (antibiotic MIC with SP-BIM at 50 μg/mL)", "conditions": "Streptococcus pneumoniae, Streptococcus pneumonia, SP-BIM at 50 μg mL^−1"}, "[11]": {"conditions": "read-out: MIC of Kanamvcin with SP-BIM"}, "[12]": {"conditions": "read-out: MIC of Vancomvcin with SP-BIM"}}, "note": "Where two headings read alike, the source gives them in different places.", "data": [{"smiles": "CC(C)(C)c1cc(C(c2c[nH]c3ccccc23)c2c[nH]c3ccccc23)c(O)c(C(C)(C)C)c1", "note": "[SP-BIM 3, [bis(indol-3-yl)-3,5-di-tert-butyl-2-hydroxyphenyl]methane]", "values": [{"measurement": "MIC", "setting": "[1]", "result": 250, "unit": "µg/mL"}, {"measurement": "MIC", "setting": "[2]", "result": "> 250", "unit": "µg/mL"}, {"measurement": "MIC", "setting": "[3]", "result": 250, "unit": "µg/mL"}, {"measurement": "MIC", "setting": "[4]", "result": "> 250", "unit": "µg/mL"}, {"measurement": "MIC", "setting": "[5]", "result": "> 250", "unit": "µg/mL"}, {"measurement": "MIC", "setting": "[6]", "result": "> 250", "unit": "µg/mL"}, {"measurement": "MIC", "setting": "[7]", "result": "> 250", "unit": "µg/mL"}, {"measurement": "MIC", "setting": "[8]", "result": "> 250", "unit": "µg/mL"}, {"measurement": "MIC", "setting": "[9]", "result": "> 250", "unit": "µg/mL"}, {"measurement": "MIC", "setting": "[10]", "result": 250, "unit": "µg/mL"}, {"measurement": "MIC", "setting": "Streptococcus pneumoniae; [11]", "result": 125, "unit": "µg/mL"}, {"measurement": "MIC", "setting": "Streptococcus pneumoniae; [12]", "result": 1, "unit": "µg/mL"}]}, {"smiles": "O=[N+]([O-])c1cccc(C(c2c[nH]c3ccccc23)c2c[nH]c3ccccc23)c1", "note": "[SP-BIM 5, [bis(indol-3-yl)-3-nitrophenyl]methane]", "values": [{"measurement": "MIC", "setting": "[1]", "result": 250, "unit": "µg/mL"}, {"measurement": "MIC", "setting": "[2]", "result": "> 250", "unit": "µg/mL"}, {"measurement": "MIC", "setting": "[3]", "result": 250, "unit": "µg/mL"}, {"measurement": "MIC", "setting": "[4]", "result": "> 250", "unit": "µg/mL"}, {"measurement": "MIC", "setting": "[5]", "result": "> 250", "unit": "µg/mL"}, {"measurement": "MIC", "setting": "[6]", "result": "> 250", "unit": "µg/mL"}, {"measurement": "MIC", "setting": "[7]", "result": "> 250", "unit": "µg/mL"}, {"measurement": "MIC", "setting": "[8]", "result": "> 250", "unit": "µg/mL"}, {"measurement": "MIC", "setting": "[9]", "result": "> 250", "unit": "µg/mL"}, {"measurement": "MIC", "setting": "[10]", "result": 250, "unit": "µg/mL"}, {"measurement": "MIC", "setting": "Streptococcus pneumoniae; [11]", "result": 125, "unit": "µg/mL"}, {"measurement": "MIC", "setting": "Streptococcus pneumoniae; [12]", "result": 1, "unit": "µg/mL"}]}, {"smiles": "c1cc(C(c2c[nH]c3ccccc23)c2c[nH]c3ccccc23)cc(C(c2c[nH]c3ccccc23)c2c[nH]c3ccccc23)c1", "note": "[SP-BIM 7, 1,3-bis[bis(indoly-3-yl)methyl]benzene]", "values": [{"measurement": "MIC", "setting": "[1]", "result": 250, "unit": "µg/mL"}, {"measurement": "MIC", "setting": "[2]", "result": "> 250", "unit": "µg/mL"}, {"measurement": "MIC", "setting": "[3]", "result": 250, "unit": "µg/mL"}, {"measurement": "MIC", "setting": "[4]", "result": "> 250", "unit": "µg/mL"}, {"measurement": "MIC", "setting": "[5]", "result": "> 250", "unit": "µg/mL"}, {"measurement": "MIC", "setting": "[6]", "result": "> 250", "unit": "µg/mL"}, {"measurement": "MIC", "setting": "[7]", "result": "> 250", "unit": "µg/mL"}, {"measurement": "MIC", "setting": "[8]", "result": "> 250", "unit": "µg/mL"}, {"measurement": "MIC", "setting": "[9]", "result": "> 250", "unit": "µg/mL"}, {"measurement": "MIC", "setting": "[10]", "result": 250, "unit": "µg/mL"}, {"measurement": "MIC", "setting": "Streptococcus pneumoniae; [11]", "result": 125, "unit": "µg/mL"}, {"measurement": "MIC", "setting": "Streptococcus pneumoniae; [12]", "result": 1, "unit": "µg/mL"}]}]}
